Laboratory results: US20080312304A1, “Topical compositions containing metronidazole” (priority 2007, published 2008)

Legend:
[1] = physical stability test of aqueous metronidazole compositions (crystal formation or precipitation); type: physicochemical; settings: for Results from stability test: 1.0% metronidazole, 24 hours room temperature, then 7 days at about 4 °C; for concentration of the solubility enhancing agent required to obtain a stable aqueous solution of 1.0% metronidazole: agent used as the only solubility enhancing agent, stability test of Example 1; for N-2-hydroxyethyl urea concentration functionally equivalent to 1% of the agent in inducing the solubility enhancing effect: worked out from Examples 2, 3 and 4
Protocol: The solubility enhancing effect of the combination of niacinamide, urea, and hydroxyalkyl urea in increasing the solubility of metronidazole in the aqueous compositions is evaluated by physical stability of the prepared compositions.
Therefore, the compositions in accordance with the present invention are subject to a physical stability test. The protocol for the stability test is as follows: metronidazole and the solubility enhancing agents are combined with water either at room temperature or elevated temperature while stirring until dissolved. The solutions are permitted to cool to room temperature. Customary auxiliaries and additives may be added to the aqueous solutions containing solubilized metronidazole and solubility enhancing agents. The solutions may be gelled by using the suitable gelling agents. The compositions both in gel or solution form are then packaged in clear glass vials and sealed. The vials are kept at room temperature for 24 hours and monitored for crystal formation or precipitation. After 24 hours, the vials are placed in a refrigerator maintained at a temperature of about 4 ° C. for 7 days. After 7 days, the vials are removed from the refrigerator. Evidence of crystal formation or precipitation in the compositions is examined.

[2] = at 25 °C; cited from earlier work

## Cc1ncc([N+](=O)[O-])n1CCO [Metronidazole, 1-(2-hydroxyethyl)-2-methyl-5-nitroimidazole]
[1]; 2% niacinamide in water
  Results from stability test: Crystals formed
[1]; 2.0% urea, 2.0% N-2-hydroxyethyl urea, 2.0% niacinamide in water
  Results from stability test: Clear (‘clear’ means no crystals or precipitates)
[1]; 3% niacinamide in water
  Results from stability test: Crystals formed
[1]; 3.0% urea, 3.0% N-2-hydroxyethyl urea, 1.5% niacinamide in water
  Results from stability test: Clear (‘clear’ means no crystals or precipitates)
[1]; 4% niacinamide in water
  Results from stability test: Crystals formed
[1]; 5% niacinamide in water
  Results from stability test: Clear (‘clear’ means no crystals or precipitates)
[1]; 7% urea in water
  Results from stability test: Crystals formed
[1]; 8% urea in water
  Results from stability test: Crystals formed
[1]; 9% urea in water
  Results from stability test: Crystals formed
[1]; 10% urea in water
  Results from stability test: Clear (‘clear’ means no crystals or precipitates)
[1]; 13% N-2-hydroxyethyl urea in water
  Results from stability test: Crystals formed
[1]; 14% N-2-hydroxyethyl urea in water
  Results from stability test: Crystals formed
[1]; 15% N-2-hydroxyethyl urea in water
  Results from stability test: Crystals formed
[1]; 16% N-2-hydroxyethyl urea in water
  Results from stability test: Clear (‘clear’ means no crystals or precipitates)
[1]; composition containing 2.0% N-2-hydroxyethyl urea, 2.0% niacinamide, 2.0% urea and 1.0% metronidazole
  result from the stability test, in words: stable

## NC(=O)NCCO [N-2-hydroxyethyl urea]
[1]
  concentration of the solubility enhancing agent required to obtain a stable aqueous solution of 1.0% metronidazole: about 16%

## NC(=O)c1cccnc1 [niacinamide]
[1]
  concentration of the solubility enhancing agent required to obtain a stable aqueous solution of 1.0% metronidazole: about 5%
  N-2-hydroxyethyl urea concentration functionally equivalent to 1% of the agent in inducing the solubility enhancing effect: about 3.2%
[2]
  water solubility limit: about 50 % by weight

## NC(N)=O [urea]
[1]
  concentration of the solubility enhancing agent required to obtain a stable aqueous solution of 1.0% metronidazole: about 10%
  N-2-hydroxyethyl urea concentration functionally equivalent to 1% of the agent in inducing the solubility enhancing effect: about 1.6%
